# Patent publication US20260374782A1, “NEW COMPOUNDS, PROCESSES FOR PREPARING THE SAME AND THEIR USE AS DRUGS” (B&A ONCOMEDICAL, priority 2022, published 2026)
# Molecular target: T1, NKCC1 (Homo sapiens, UniProt P55011)
# T1 construct: endogenous in cells; host or cells: native HEK293 cells
# T1 sequence (P55011 1-1212): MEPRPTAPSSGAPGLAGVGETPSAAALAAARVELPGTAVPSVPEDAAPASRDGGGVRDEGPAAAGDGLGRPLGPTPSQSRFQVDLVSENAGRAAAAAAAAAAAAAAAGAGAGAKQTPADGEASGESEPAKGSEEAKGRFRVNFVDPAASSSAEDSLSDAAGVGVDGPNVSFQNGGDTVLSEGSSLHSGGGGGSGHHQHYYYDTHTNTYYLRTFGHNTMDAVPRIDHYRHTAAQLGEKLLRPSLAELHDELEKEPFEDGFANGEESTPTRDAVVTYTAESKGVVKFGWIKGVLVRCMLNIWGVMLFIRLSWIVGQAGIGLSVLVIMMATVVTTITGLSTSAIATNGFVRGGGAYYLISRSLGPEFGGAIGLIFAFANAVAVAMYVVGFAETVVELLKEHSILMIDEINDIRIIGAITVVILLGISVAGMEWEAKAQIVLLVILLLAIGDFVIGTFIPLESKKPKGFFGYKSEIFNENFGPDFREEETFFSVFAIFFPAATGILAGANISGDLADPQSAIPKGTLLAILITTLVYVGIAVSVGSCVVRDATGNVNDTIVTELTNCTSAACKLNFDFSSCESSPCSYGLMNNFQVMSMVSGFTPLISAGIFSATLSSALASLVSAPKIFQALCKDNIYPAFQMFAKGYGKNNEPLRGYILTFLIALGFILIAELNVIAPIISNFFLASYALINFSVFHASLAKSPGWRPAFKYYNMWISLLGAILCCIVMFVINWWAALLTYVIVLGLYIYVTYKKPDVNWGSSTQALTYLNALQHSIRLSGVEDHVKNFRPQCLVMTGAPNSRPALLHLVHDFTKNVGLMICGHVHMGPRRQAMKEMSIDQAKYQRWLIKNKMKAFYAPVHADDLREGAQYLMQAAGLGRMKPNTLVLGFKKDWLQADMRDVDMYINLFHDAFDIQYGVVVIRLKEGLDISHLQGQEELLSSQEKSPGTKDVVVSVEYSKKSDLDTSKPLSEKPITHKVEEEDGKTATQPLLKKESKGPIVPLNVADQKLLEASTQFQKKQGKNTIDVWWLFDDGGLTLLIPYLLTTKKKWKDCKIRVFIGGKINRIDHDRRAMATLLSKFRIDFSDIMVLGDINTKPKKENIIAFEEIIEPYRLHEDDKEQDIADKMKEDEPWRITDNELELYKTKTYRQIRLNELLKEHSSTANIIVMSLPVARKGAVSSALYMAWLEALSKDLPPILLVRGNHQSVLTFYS
# Test: NKCC1-mediated K+ influx (83Rb tracer uptake) in native HEK293 cells, hypertonic saline, 100 μM ouabain
# Type: cell-based
# Conditions: HEK293, no drug = 1000, 20 μM bumetanide = 0; for inhibition at 20 µM: read-out: NKCC1 mediated flux inhibition at 20 μM (%); for inhibition at 2 µM: read-out: NKCC1 mediated flux inhibition at 2 μM (%)
# Excerpt: The compounds of the invention have been tested for evaluating their potency in inhibiting the NKCC1 channel. The test used is a cellular assay expressing the NKCC1 channel: HEK293 cells are human cells derived from embryonic kidney. The inhibitory activity of the compounds has been evaluated in measuring the modification of the potassium flux at 2 concentrations, as described hereafter in the biological protocol.
# HEK293 cells are human cells derived from embryonic kidney. They express at their plasma membranes proteins that transport potassium (K^+). Among these proteins is the Na—K-2Cl cotransporter or NKCC1. This transporter contributes to 40-50% of K^+ influx into the cells. The remaining of K^+ transport is mediated by the Na^+/K^+-ATPase (also known as Na^+ pump or Na^+/K^+ pump), which also contributes some 40-50% of the influx basal flux of 5-10%, which is mainly due to K^+ channels (FIG. 1A). Thus, the HEK293 cell in culture is an ideal model to study the function of NKCC1 and test compounds that inhibits its transport.
# The assay to measure NKCC1 function was optimized to obtain the next signal to noise ratio: • a. A slightly hypertonic saline was used to stimulate NKCC1 function. […] By consistent use of this simple manipulation, the NKCC1 signal was enhanced. • b. Ouabain, an inhibitor of the Na^+/K^+ pump, was used at 100 μM. […] A radioactive isotope was used to trace the inward movement of K^+ into the cell (influx). This allowed for highly precise measurements of K^+ influx. Because radioactive isotopes of K^+ had very short half-lives, radioactive isotopes of Rb^+ were used. Rubidium was a monovalent cation which was readily transporter at the K^+ binding site by many transporters and channels. Rb^+ was a congener of K^+, being transported undistinguishably from K^+. ^83Rb (half-life of 83 days) was used since ^86Rb (half-life of 19.6 days) is no longer commercially available. The ^83Rb isotope was used as a tracer, i.e. at a very low amounts to trace the movement of K^+.
# K^+ influx measured in native HEK293 was in the range of 7000-9000 pmoles K^+ per mg protein per min. In the presence of 20 μM Ref 1, the flux was reduced to 600-900 pmoles K^+ per mg protein per min. Thus, there was a very solid dynamic range. In each experiment, the flux without Ref 1 was set at 1000 (equivalent to 100.0%) and the flux with 20 μM bumetanide was set at 0 (equivalent to 0%).
# For the flux experiments, 35-mm culture dishes were coated with 0.1 mg/mL poly-L-lysine and placed in large 20×20 [square] dishes. For convenience, the poly-L-lysine was placed in the dishes the day before the experiment. Before plating the cells, the poly-L-lysine was aspirated, and each dish washed twice with 1 mL sterile water. Cells from 3 confluent 10-cm dishes were detached with trypsin and resuspended into 49 mL complete medium. Cells (2 mL/35-mm dish) were plated in 24 dishes and allowed to attach for at least 2 hours prior to the flux. This setup allowed the measurement of 8 conditions in triplicates. For the flux, culture medium was aspirated and replaced with 1 mL saline for a preincubation period of 15 min. The saline was aspirated and replaced with 1 mL identical saline containing 0.25 μCi/mL 83Rb for 15 min. Following the uptake period, the radioactive solution was aspirated, and the cells washed 3 times with ice-cold saline. Cells were then lyzed with 500 μl 0.25N NaOH for 1 hour, neutralized with 250 μL glacial acetic acid and 300 μL and 30 μL aliquots were used for μ-scintillation counting and protein assays, respectively. Two 5 μL of each flux solution was used to determine cpm and relate those cpm to nmoles K^+. Potassium influx was expressed in nmoles K^+ per mg protein per min. Note that within an experiment, groups of 3 dishes were separated 2 min apart for easy handling. Also note that since all dishes were plated with a homogeneous cell suspension, and all dishes were identical, the protein content was measured from a subset of dishes. […]
Structure (SMILES),inhibition at 20 µM [%],inhibition at 2 µM [%]
"CCCCNc1cc(C(=O)OC)cc(S(=N)(=O)N(C)CC)c1Oc1ccccc1 (stereo not drawn) [Compound 5, methyl 3-(butylamino)-5-[[ethyl(methyl)amino]sulfonimidoyl]-4-phenoxy-benzoate]",50 to 75,–
"CCCCNc1cc(C(=O)OC)cc(S(=N)(=O)N2CCOCC2)c1Oc1ccccc1 (stereo not drawn) [Compound 6, methyl 3-(butylamino)-5-(morpholinosulfonimidoyl)-4-phenoxy-benzoate]",30 to 50,10 to 30
"CCCCNc1cc(C(=O)OC)cc(S(=N)(=O)Nc2ccccc2)c1Oc1ccccc1 (stereo not drawn) [Compound 7, methyl 3-(anilinosulfonimidoyl)-5-(butylamino)-4-phenoxy-benzoate]",50 to 75,10 to 30
"CCCCNc1cc(C(=O)OC)cc(S(=N)(=O)NCc2ccccc2)c1Oc1ccccc1 (stereo not drawn) [Compound 8, methyl 3-[(benzylamino)sulfonimidoyl]-5-(butylamino)-4-phenoxy-benzoate]",50 to 75,10 to 30
"CCCCNc1cc(C(=O)OC)cc(S(=N)(=O)NCCOC)c1Oc1ccccc1 (stereo not drawn) [Compound 9, methyl 3-(butylamino)-5-[(2-methoxyethylamino)sulfonimidoyl]-4-phenoxy-benzoate]",10 to 30,–
"CCCCNc1cc(C(=O)OC)cc(S(=N)(=O)NC2CC2)c1Oc1ccccc1 (stereo not drawn) [Compound 10, methyl 3-(butylamino)-5-[(cyclopropylamino)sulfonimidoyl]-4-phenoxy-benzoate]",10 to 30,–
"CCCCNc1cc(C(=O)OC)cc(S(=N)(=O)N2CCCCCC2)c1Oc1ccccc1 (stereo not drawn) [Compound 11, methyl 3-(azepan-1-ylsulfonimidoyl)-5-(butylamino)-4-phenoxy-benzoate]",50 to 75,–
"CCCCNc1cc(C(=O)OC)cc(S(=N)(=O)NCC2CCCCC2)c1Oc1ccccc1 (stereo not drawn) [Compound 12, methyl 3-(butylamino)-5-[(cyclohexylmethylamino)sulfonimidoyl]-4-phenoxy-benzoate]",30 to 50,10 to 30

# Next, values leading:
inhibition at 20 µM [%],inhibition at 2 µM [%],Structure (SMILES)
10 to 30,–,"CCCCNc1cc(C(=O)OC)cc(S(=N)(=O)NCC2CCOCC2)c1Oc1ccccc1 (stereo not drawn) [Compound 13, methyl 3-(butylamino)-4-phenoxy-5-[(tetrahydropyran-4-ylmethylamino)sulfonimidoyl]benzoate]"
10 to 30,10 to 30,"CCCCNc1cc(C(=O)OC)cc(S(=N)(=O)N(C)c2ccccc2)c1Oc1ccccc1 (stereo not drawn) [Compound 14, methyl 3-(butylamino)-5-[(N-methylanilino)sulfonimidoyl]-4-phenoxy-benzoate]"
30 to 50,30 to 50,"CCCCNc1cc(C(=O)OC)cc(S(=N)(=O)NCc2cncnc2)c1Oc1ccccc1 (stereo not drawn) [Compound 15, methyl 3-(butylamino)-4-phenoxy-5-[(pyrimidin-5-ylmethylamino)sulfonimidoyl]benzoate]"
10 to 30,30 to 50,"CCCCNc1cc(C(=O)OC)cc(S(=N)(=O)Nc2cccnc2)c1Oc1ccccc1 (stereo not drawn) [Compound 16, methyl 3-(butylamino)-4-phenoxy-5-[(3-pyridylamino)sulfonimidoyl]benzoate]"
30 to 50,10 to 30,"CCCCNc1cc(C(=O)OC)cc(S(=N)(=O)Nc2cccc(OC)c2)c1Oc1ccccc1 (stereo not drawn) [Compound 17, methyl 3-(butylamino)-5-[(3-methoxyanilino)sulfonimidoyl]-4-phenoxy-benzoate]"
10 to 30,30 to 50,"CCCCNc1cc(C(=O)OC)cc(S(=N)(=O)N2CCC(c3ccccc3)CC2)c1Oc1ccccc1 (stereo not drawn) [Compound 18, methyl 3-(butylamino)-4-phenoxy-5-[(4-phenyl-1-piperidyl)sulfonimidoyl]benzoate]"
10 to 30,30 to 50,"CCCCNc1cc(C(=O)OC)cc(S(=N)(=O)N2CCc3ccccc32)c1Oc1ccccc1 (stereo not drawn) [Compound 19, methyl 3-(butylamino)-5-(indolin-1-ylsulfonimidoyl)-4-phenoxy-benzoate]"
10 to 30,–,"CCCCNc1cc(C(=O)OC)cc(S(=N)(=O)N2CC3CCC(C2)O3)c1Oc1ccccc1 (stereo not drawn) [Compound 20, methyl 3-(butylamino)-5-(8-oxa-3-azabicyclo[3.2.1]octan-3-ylsulfonimidoyl)-4-phenoxy-benzoate]"
30 to 50,10 to 30,"CCCCNc1cc(C(=O)OC)cc(S(=N)(=O)Nc2ccn(C)n2)c1Oc1ccccc1 (stereo not drawn) [Compound 21, methyl 3-(butylamino)-5-[[(1-methylpyrazol-3-yl)amino]sulfonimidoyl]-4-phenoxy-benzoate]"
30 to 50,30 to 50,"CCCCNc1cc(C(=O)OC)cc(S(=N)(=O)Nc2cccc(Cl)c2)c1Oc1ccccc1 (stereo not drawn) [Compound 22, methyl 3-(butylamino)-5-[(3-chloroanilino)sulfonimidoyl]-4-phenoxy-benzoate]"
10 to 30,30 to 50,"CCCCNc1cc(C(=O)OC)cc(S(=N)(=O)NCc2cccc(Cl)c2)c1Oc1ccccc1 (stereo not drawn) [Compound 23, methyl 3-(butylamino)-5-[[(3-chlorophenyl)methylamino]sulfonimidoyl]-4-phenoxy-benzoate]"
30 to 50,10 to 30,"CCCCNc1cc(C(=O)OC)cc(S(=N)(=O)N2Cc3ccccc3C2)c1Oc1ccccc1 (stereo not drawn) [Compound 24, methyl 3-(butylamino)-5-(isoindolin-2-ylsulfonimidoyl)-4-phenoxy-benzoate]"
30 to 50,30 to 50,"CCCCNc1cc(C(=O)OC)cc(S(=N)(N)=O)c1Oc1ccccc1 (stereo not drawn) [Compound 25, methyl 3-(aminosulfonimidoyl)-5-(butylamino)-4-phenoxy-benzoate]"
